# Assay results taken from patent US20100291592A1, “NOVEL MARKER FOR SENSITIVITY AGAINST SULFONAMIDE COMPOUND” (priority 2006, published 2010).
# Tests used:
# [1] = system: human non-small cell lung cancer cell line (A549); assay: Anti-tumor effect on subcutaneous transplant model of A549; format: in vivo, nude mouse; conditions: 50 or 200 mg/kg orally twice a day for 7 days
# Description: (§1) Human non-small-cell lung cancer cell line PC9 (obtained from Immuno-Biological laboratories Co., Ltd.), human non-small-cell lung cancer cell line A549 (obtained from Dainippon Pharmaceutical), human colon cancer cell line WiDr (obtained from Dainippon Pharmaceutical) and human colon cancer cell line HCT116 (obtained from ATCC) were cultured in RPMI1640 (containing 10% FBS) in a 5% carbon dioxide incubator at 37° C. to about 80% confluence, and the cells were collected with trypsin-EDTA. Using a phosphate buffer for PC9, WiDr and HCT116 and a 50% matrigel-containing phosphate buffer for A549, 5×10^7 cells/mL suspensions were prepared, respectively. Then, 0.1 mL each of the resulting cell suspensions was subcutaneously transplanted to the side of a nude mouse.
# (§2) For PC9, 8 days after the transplantation, E7820 was orally administered for 50 mg/kg, 100 mg/kg or 200 mg/kg twice a day for 14 days. For A549, 24 days after the transplantation, E7820 was orally administered for 50 mg/kg or 200 mg/kg twice a day for 7 days. For WiDr, 11 days after the transplantation, E7820 was orally administered for 50 mg/kg, 100 mg/kg or 200 mg/kg twice a day for 14 days. […]
# (§3) The major and minor axes of tumors were measured with Digimatic caliper (Mitsutoyo), and tumor volumes and relative tumor volumes were calculated according to the following formulae. […]
# [2] = system: human colon cancer cell line (WiDr); assay: Anti-tumor effect on subcutaneous transplant model of WiDr; format: in vivo, nude mouse; conditions: WiDr subcutaneous transplant, 50, 100 or 200 mg/kg orally twice a day for 14 days
# Description: as §1, §2, §3
# EGFR1 [3] = assay: EGFR1 expression level in cultured PC9 (flow cytometry); format: cell-based, human; conditions: for EGFR1 expression level (% of control) PC9: two days of culture
# Description: PC9 or A549 was suspended in RPMI1640 (containing 10% FBS) to 1×10^5 cells/ml. Then, 1 ml each of these suspensions was placed into each well of a 6-well plate and cultured in a 5% carbon dioxide incubator at 37° C. On the following day, 1 ml each of E7820 culture dilutions at respective concentrations (0-20 μM) was added to the cells in each well for further culture. After two days of culture, the cells were collected with trypsin-EDTA according to a routine procedure, which were suspended in PBS containing 0.5% BSA. Subsequently, an anti-EGFR1 antibody (BD Biosciences) was added to these suspensions and incubated at 4° C. for 30 minutes. Centrifugation and washing with PBS were carried out according to routine procedures to remove an excessive amount of the antibody. Then, an RPE-labeled anti-mouse IgG antibody was added to these suspensions and incubated at 4° C. for 30 minutes. Centrifugation and washing with PBS were carried out according to routine procedures to remove an excessive amount of the antibody. Finally, the EGFR1 expression level in PC9 and A549 were determined with FACSCalibur (Japan Becton, Dickinson and Company).
# EGFR1 [4] = assay: EGFR1 expression and phosphorylation level in PC9 subcutaneous transplant model (western blotting); format: in vivo, nude mouse; conditions: for Phosphorylation level of EGFR1 (% of control) / EGFR1 expression level (% of control): PC9 tumor in nude mouse; for Phosphorylation level of EGFR1 (% of control): anti-EGFR pY1068 western blotting
# Description: PC9 was cultured in RPMI1640 (containing 10% FBS) in a 5% carbon dioxide incubator to about 80% confluence. The cells were collected with trypsin-EDTA according to a routine procedure and 5×10^7 cells/mL suspension was prepared with a phosphate buffer. Then, 0.1 mL each of the resulting suspension was subcutaneously transplanted to the side of a nude mouse. Eight days after the transplantation, E7820 was orally administered for 50 mg/kg or 200 mg/kg twice a day for a week. One week after the start of sadministration, tumors were removed to prepare tumor cell lysates with various protease inhibitors and a cell lysis solution containing 10% glycerol and 1% Triton X-100 in ice. For each tumor cell lysate, an equal amount of protein was fractionated by SDS-PAGE and transferred onto a nitrocellulose membrane (Hybond ECL, Amersham Biosciences). Then, western blotting was performed by using an anti-EGFR1 antibody (Santa Cruz Biotechnology) or an anti-EGFR pY1068 antibody (anti-phosphorylated-EGFR1 antibody) (Cell Signaling) and horse radish peroxidase-labeled anti-mouse IgG antibody (secondary antibody) (Cell Signaling) according to a routine procedure.
# Detection and quantification of each band were carried out as follows. First, each band was forced to chemically develop a color with Chemiluminescent Substrate (PIERCE), which was then captured as a digital image with Image Master VDS-CL (Amersham Pharmacia Biotech, Tokyo). The digital images were saved as TIF files and each band was numerically converted with Image Master total Lab (version 1.00, Amersham Pharmacia Biotech, Tokyo).
# [5] = system: cancer cell line resistant to E7070; conditions: WO2006/030941 and WO2006/030947; cited from earlier work
# [6] = PC9 transplanted tumors, dose-dependent, western blotting
structure (smiles),measurement,setting,value
"Cc1ccc(NS(=O)(=O)c2cccc(C#N)c2)c2[nH]cc(C#N)c12 [E7820, N-(3-cyano-4-methyl-1H-indole-7-yl)-3-cyanobenzenesulfonamide]",Anti-tumor effect (relative tumor volume),[1],showed anti-tumor effects
same,Anti-tumor effect (relative tumor volume),[2],showed anti-tumor effects
same,EGFR1 expression level (% of control) PC9,"EGFR1 [3]; PC9, E7820 0.01 μM",95 % of control
same,EGFR1 expression level (% of control) PC9,"EGFR1 [3]; PC9, E7820 0.03 μM",91 % of control
same,EGFR1 expression level (% of control) PC9,"EGFR1 [3]; PC9, E7820 0.1 μM",80 % of control
same,EGFR1 expression level (% of control) PC9,"EGFR1 [3]; PC9, E7820 0.3 μM",65 % of control
same,EGFR1 expression level (% of control) PC9,"EGFR1 [3]; PC9, E7820 1 μM",49 % of control
same,EGFR1 expression level (% of control) PC9,"EGFR1 [3]; PC9, E7820 3 μM",44 % of control
same,EGFR1 expression level (% of control) PC9,"EGFR1 [3]; PC9, E7820 10 μM",37 % of control
same,Effect on EGFR1 expression level (in words),"EGFR1 [3]; cultured PC9, dose-dependent",greatly decreased the EGFR1 expression level
same,Effect on EGFR1 expression level (in words),EGFR1 [4]; [6],decreased the EGFR1 expression level
same,Effect on phosphorylation of EGFR1 (in words),EGFR1 [4]; [6],inhibited phosphorylation of EGFR1
same,Phosphorylation level of EGFR1 (% of control),EGFR1 [4]; 50 mg/kg orally twice a day for a week,59 % of control
same,EGFR1 expression level (% of control),"EGFR1 [4]; 50 mg/kg orally twice a day for a week, western blotting",63 % of control
same,Phosphorylation level of EGFR1 (% of control),EGFR1 [4]; 200 mg/kg orally twice a day for a week,51 % of control
same,EGFR1 expression level (% of control),"EGFR1 [4]; 200 mg/kg orally twice a day for a week, western blotting",40 % of control
same,Cross-resistance of E7070-resistant cancer cell line (antiproliferative activity),[5],cross-resistance
